In PMC5706701, “Development of a homogenous high-throughput assay for inositol hexakisphosphate kinase 1 activity” (PLoS ONE, 2017):
Counter-ions that a name gives are not always drawn. Like-named read-outs stand apart in the source and are kept apart here.

Biological target: T1, Human IP6K1 (Homo sapiens, UniProt Q92551)
T1 construct: GST (N, cleaved yes); made in house; host or cells: C43 E. coli, pGEX-6P-2
Assay: IP6K1 high-throughput screen of the Sigma LOPAC (ADP-Glo Max, single point);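 further: final compound concentration 10µM in 5% DMSO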
Format: biochemical

[1] = LOPAC single-point screen, ADP-Glo Max luminescence raw signal per well
[2] = LOPAC single-point screen, Z-score relative to plate average and StDev
[3] = LOPAC single-point screen, ADP-Glo Max raw signal per well
[4] = LOPAC single-point screen, Z-score against plate average and StDev
[5] = Sigma LOPAC single-point screen, ADP-Glo Max raw signal per well
[6] = Sigma LOPAC single-point screen, Z-score from plate average and StDev
[7] = LOPAC single-point screen, Z-score from raw signal with plate average and StDev
[8] = LOPAC single-point screen, Z-score from plate average and StDev

T1 sequence (Q92551 whole entry): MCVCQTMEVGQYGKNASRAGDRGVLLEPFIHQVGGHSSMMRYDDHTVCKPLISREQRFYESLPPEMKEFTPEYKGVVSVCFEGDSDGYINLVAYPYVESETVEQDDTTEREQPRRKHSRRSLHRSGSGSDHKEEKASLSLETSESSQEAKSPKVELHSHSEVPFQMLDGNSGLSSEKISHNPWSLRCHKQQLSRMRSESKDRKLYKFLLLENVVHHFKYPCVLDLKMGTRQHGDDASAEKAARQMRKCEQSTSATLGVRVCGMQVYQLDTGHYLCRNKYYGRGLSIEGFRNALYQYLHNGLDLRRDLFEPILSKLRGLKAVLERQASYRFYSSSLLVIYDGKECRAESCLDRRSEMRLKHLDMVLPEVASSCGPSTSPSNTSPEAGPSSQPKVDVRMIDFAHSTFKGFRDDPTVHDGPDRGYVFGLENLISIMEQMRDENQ

## CC1(C)CCC=[N+]1[O-] [5,5-Dimethyl-1-pyrroline-N-oxide]
[1]
  Raw Signal: 51954
[2]
  Z-score: -0.6525

## COC(=O)c1c(-c2cc(OC)c(OC)c(OC)c2)c2ccnc(OCc3ncccn3)c2c(=O)n1Cc1ccnc(C)c1 [T-0156]
[1]
  Raw Signal: 53574
[2]
  Z-score: -0.476

## Cn1c(=O)c2[nH]cnc2n(C)c1=O [Theophylline]
[1]
  Raw Signal: 53365
[2]
  Z-score: -0.5166

## CNCCC=C1c2ccccc2CCc2ccccc21 [Nortriptyline hydrochloride]
[3]
  Raw Signal: 54505
[4]
  Z-score: 0.01873

## CN1CCN(c2ccc3ccccc3n2)CC1.O=C(O)/C=C\C(=O)O.O=C(O)/C=C\C(=O)O [Quipazine, N-methyl-, dimaleate]
[1]
  Raw Signal: 51627
[2]
  Z-score: -0.8542

## O=C1NCC2(CCN(CCc3ccccc3)CC2)O1 [Fenspiride hydrochloride]
[3]
  Raw Signal: 54758
[4]
  Z-score: -0.08307

## O=C(O)/C=C\C(=O)O.c1cnc(N2CCN(Cc3ccc4c(c3)OCO4)CC2)nc1 [Piribedil maleate]
[5]
  Raw Signal: 62540
[6]
  Z-score: 1.266

## Cl.FC(F)(F)c1cc(CO[C@H]2CCCN[C@H]2c2ccccc2)cc(C(F)(F)F)c1 [L-733,060 hydrochloride]
[3]
  Raw Signal: 52038
[7]
  Z-score: -0.3958

## N=C(N)NC(=O)c1nc(Cl)c(N2CCCCCC2)nc1N [5-(N,N-hexamethylene)amiloride]
[3]
  Raw Signal: 56870
[7]
  Z-score: -0.1837

## N[C@@H]1C[C@H]1c1ccccc1 [Tranylcypromine hydrochloride]
[3]
  Raw Signal: 55566
[4]
  Z-score: -0.08894

## Br.Cc1cccc(C2CN(C)CCc3c2cc(O)c(O)c3Cl)c1 (centres unmarked) [SKF 83959 hydrobromide]
[1]
  Raw Signal: 52693
[2]
  Z-score: -0.6471

## OCCN1CCN(CC/C=C2/c3ccccc3Sc3ccc(C(F)(F)F)cc32)CC1 [cis-(Z)-Flupenthixol dihydrochloride]
[3]
  Raw Signal: 56412
[4]
  Z-score: 0.2528

## C[C@]12CC[C@H](OS(=O)(=O)[O-])CC1=CC[C@@H]1[C@@H]2CC[C@]2(C)C(=O)CC[C@@H]12.[Na+] [Dehydroisoandrosterone 3-sulfate sodium]
[3]
  Raw Signal: 55598
[4]
  Z-score: 0.08752

## O=C([O-])CCC(NC(=O)c1ccccc1C(=O)[O-])C(=O)[O-].[Na+].[Na+].[Na+] [Phthalamoyl-L-glutamic acid trisodium]
[5]
  Raw Signal: 58114
[6]
  Z-score: 0.4061

## NCCc1ccc(O)c(O)c1 [Dopamine hydrochloride]
[1]
  Raw Signal: 44704
[2]
  Z-score: -2.125

## Oc1ccc(O)cc1 [Hydroquinone]
[5]
  Raw Signal: 59753
[6]
  Z-score: 0.9314

## CC(=O)OCC1=C(C(=O)[O-])N2C(=O)[C@@H](NC(=O)CCC[C@@H](N)C(=O)[O-])[C@H]2SC1.[Zn+2] [Cephalosporin C zinc salt]
[3]
  Raw Signal: 57645
[4]
  Z-score: -0.04722

## CC(C)NCC(O)COc1ccc(CC(N)=O)cc1 (racemic) [(±)-Atenolol]
[3]
  Raw Signal: 56468
[7]
  Z-score: -0.2545

## NC(CCCCCP(=O)(O)O)C(=O)O (racemic) [(±)-2-Amino-7-phosphonoheptanoic acid]
  Raw Signal: 66212
  Z-score: 1.462

## NC(N)=NCc1cccc(I)c1.NC(N)=NCc1cccc(I)c1.O=S(=O)(O)O [m-Iodobenzylguanidine hemisulfate]
[5]
  Raw Signal: 60474
[6]
  Z-score: 1.022

## CN1Cc2c(N)cccc2C(c2ccccc2)C1 (centres unmarked) [Nomifensine maleate]
[3]
  Raw Signal: 56397
[4]
  Z-score: 0.3366

## N#CC(C#N)=Cc1ccc(O)c(O)c1 [Tyrphostin 23]
[1]
  Raw Signal: 48444
[2]
  Z-score: -1.473

## CCOC(=O)c1cnc2c(cnn2CC)c1NN=C(C)C [Etazolate hydrochloride]
[1]
  Raw Signal: 51155
[2]
  Z-score: -0.8148

## Fc1ccc(C(c2ccc(F)cc2)N2CCN(C/C=C/c3ccccc3)CC2)cc1 [Flunarizine dihydrochloride]
[5]
  Raw Signal: 58645
[6]
  Z-score: 0.7063

## Cn1c(=O)c2c(ncn2C)n(C)c1=O [Caffeine]
[3]
  Raw Signal: 57928
[4]
  Z-score: 0.002624

## N[C@H]1CON=C1O [L-Cycloserine]
[3]
  Raw Signal: 56773
[7]
  Z-score: -0.2008

## CC(C)C[C@H]1C(=O)N2CCC[C@H]2[C@]2(O)O[C@](NC(=O)[C@@H]3C=C4c5cccc6[nH]c(Br)c(c56)C[C@H]4N(C)C3)(C(C)C)C(=O)N12.CS(=O)(=O)O [(+)-Bromocriptine methanesulfonate]
[3]
  Raw Signal: 59214
[4]
  Z-score: 0.2291

## O=C(O)C1=CCCNC1 [Guvacine hydrochloride]
[3]
  Raw Signal: 56288
[4]
  Z-score: 0.2277

## NC(=O)N1c2ccccc2C=Cc2ccccc21 [Carbamazepine]
[5]
  Raw Signal: 60604
[6]
  Z-score: 0.4739

## Cc1[nH]c2ccc(O)cc2c1CCN.O=C(O)/C=C\C(=O)O [2-Methyl-5-hydroxytryptamine maleate]
[3]
  Raw Signal: 56336
[4]
  Z-score: 0.3264

## CCn1cc(C(=O)O)c(=O)c2cc(F)c(N3CCNC(C)C3)c(F)c21 (centres unmarked) [Lomefloxacin hydrochloride]
[1]
  Raw Signal: 49930
[2]
  Z-score: -0.75

## Cl.NC1C=CC=C(C(=O)O)C1 (centres unmarked) [Gabaculine hydrochloride]
[5]
  Raw Signal: 64092
[6]
  Z-score: 1.088

## CN1CCc2cc3c(cc2[C@H]1[C@@H]1OC(=O)c2c1ccc1c2OCO1)OCO3 [(+)-Bicuculline]
[1]
  Raw Signal: 66353
[8]
  Z-score: 1.4865

## Cn1cnc2c(NCc3ccccc3)nc(NCCO)nc21 [Olomoucine]
[5]
  Raw Signal: 60982
[6]
  Z-score: 1.107

## COc1ccc(/C=C/C(=O)Nc2ccccc2C(=O)O)cc1OC [Tranilast]
[1]
  Raw Signal: 68948
[8]
  Z-score: 2.511

## CC(C)NC(C)Cc1ccc(I)cc1 (centres unmarked) [Iofetamine hydrochloride]
[3]
  Raw Signal: 55439
[4]
  Z-score: 0.1757

## Nc1cc(=O)[nH]c(N)n1 [2,6-Diamino-4-pyrimidinone]
[5]
  Raw Signal: 57244
[6]
  Z-score: 0.4218

## C[C@H](O)[C@H](O)[C@H]1CNc2nc(N)[nH]c(=O)c2N1.Cl
[3]
  Raw Signal: 53766
[7]
  Z-score: -0.4386

## Cn1c(=O)[nH]c2ncn(C)c2c1=O [1,7-Dimethylxanthine]
[3]
  Raw Signal: 53863
[7]
  Z-score: -0.2648

## O=C([O-])/C=C/C(O)c1ccc(Cl)cc1.[Na+] (centres unmarked) [NCS-356]
[5]
  Raw Signal: 58969
[6]
  Z-score: 0.7688

## NCCSSCCN [Cystamine dihydrochloride]
[3]
  Raw Signal: 58178
[4]
  Z-score: 0.04666

## CCCCC/C=C\C[C@@H](O)/C=C/c1cccc(C[C@@H](O)CCCCO)n1 [U-75302]
[1]
  Raw Signal: 63793
[8]
  Z-score: 1.509

## S(-)-DS 121 hydrochloride
[3]
  Raw Signal: 56472
[4]
  Z-score: 0.265

## COc1cc(C(O)CO)ccc1OS(=O)(=O)[O-].[K+] (centres unmarked) [MHPG sulfate potassium]
[3]
  Raw Signal: 56093
[4]
  Z-score: 0.1881

## N[C@H](C(=O)O)c1cc(O)cc(O)c1 [(S)-3,5-Dihydroxyphenylglycine]
[1]
  Raw Signal: 63204
[8]
  Z-score: 1.632

## O=C(OCCN1CCCCC1)c1c[nH]c2ccccc12 [SB 203186]
[1]
  Raw Signal: 49486
[2]
  Z-score: -1.154

## C[C@]12C=CC(=O)C=C1CC[C@H]1[C@@H]3C[C@@H](O)[C@](O)(C(=O)CO)[C@@]3(C)C[C@H](O)[C@@]12F [Triamcinolone]
[5]
  Raw Signal: 60096
[6]
  Z-score: 0.7912

## CN(C)c1cc2c(Nc3ccc4c(cnn4Cc4ccccc4)c3)ncnc2cn1 [GW2974]
[3]
  Raw Signal: 53289
[7]
  Z-score: -0.3814

## Nc1nc(N)c2nc(CNc3ccc(C(=O)N[C@@H](CCC(=O)O)C(=O)O)cc3)cnc2n1 [Aminopterin]
[3]
  Raw Signal: 55514
[7]
  Z-score: -0.4225

## Oligomycin A
[3]
  Raw Signal: 55071
[4]
  Z-score: 0.1138

## CCN(CC)C(=O)N[C@H]1C[C@@H]2c3cccc4[nH]cc(c34)C[C@H]2N(C)C1 [R(+)-Terguride]
[5]
  Raw Signal: 59619
[6]
  Z-score: 0.6985

## Oc1ccc(/C=C/c2cc(O)cc(O)c2)cc1 [Resveratrol]
[3]
  Raw Signal: 54146
[7]
  Z-score: -0.3648

## CN(C)c1ccc(O)c2c1C[C@H]1C[C@H]3[C@H](N(C)C)C(O)=C(C(N)=O)C(=O)[C@@]3(O)C(O)=C1C2=O [Minocycline hydrochloride]
[3]
  Raw Signal: 55658
[4]
  Z-score: 0.2125

## CC(C)CN(C)c1nc(N)c(C(=O)N=C(N)N)nc1Cl [5-(N-Methyl-N-isobutyl)amiloride]
[3]
  Raw Signal: 57481
[4]
  Z-score: -0.0761

## Cl.N[C@@H](CCl)C(=O)O [beta-Chloro-L-alanine hydrochloride]
[3]
  Raw Signal: 58972
[4]
  Z-score: 0.1865

## CCCN(CCC)CCc1c[nH]c2ccc(C(N)=O)cc12.O=C(O)/C=C\C(=O)O
[5]
  Raw Signal: 60214
[6]
  Z-score: 1.025

## Brc1c(NC2=NCCN2)ccc2nccnc12 [UK 14,304]
  Raw Signal: 53944
  Z-score: -0.4041

## Cc1ccc(C(=O)Nc2ccc(S(=O)(=O)O)c3cc(S(=O)(=O)O)cc(S(=O)(=O)O)c23)cc1NC(=O)c1cccc(NC(=O)Nc2cccc(C(=O)Nc3cc(C(=O)Nc4ccc(S(=O)(=O)O)c5cc(S(=O)(=O)O)cc(S(=O)(=O)O)c45)ccc3C)c2)c1 [Suramin hexasodium]
[1]
  Raw Signal: 10286
[2]
  Z-score: -8.886

## NC(CO)(CO)CO.O=C(c1ccccc1)c1ccc2n1CCC2C(=O)O (centres unmarked) [Ketorolac tris salt]
[1]
  Raw Signal: 48098
[2]
  Z-score: -1.058

## Br.CN=c1nc(-c2ccccc2)n(-c2ccccc2)s1 [SCH-202676 hydrobromide]
[1]
  Raw Signal: 51247
[2]
  Z-score: -0.928

## CC(C)C[C@H](NC(=O)[C@H](O)[C@H](N)Cc1ccccc1)C(=O)O [Epibestatin hydrochloride]
[3]
  Raw Signal: 58771
[4]
  Z-score: 0.1511
